Laboratory results taken from PubChem BioAssay AID179 (DTP/NCI, 2004).
Activity calls are given as the source filed them.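 The calls were made as follows: active = compounds giving half or more protection of infected cells from virus-caused growth loss, again on retest; inactive = the rest.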

Tested on: CEM cells HIV-1 protection, formazan growth assay
Experiment: NCI AIDS Antiviral Assay
Conditions: for IC50: measured here: growth of uninfected CEM cells
How it was run: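 Screen of anti-HIV-1 activity in human CEM cells using a formazan-based growth measurement at five drug concentrations. Hits with 50% or greater protection were repeated, and confirmation required reproducible complete protection.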

Row | Structure (SMILES) | EC50 [µM] | IC50 [µM] | outcome
1 | COc1ccc(C2Oc3ccc(O)cc3[C@@H]2C)cc1OC (some centres undefined) | > 174 | > 174 | –
2 | Cc1ccc(NC(=O)CC/C(CC(=O)c2ccc(F)cc2)=N\NC(=O)C(=O)NN)cc1C | > 11.7 | > 11.7 | –
3 | CCOC(=O)c1ccccc1NNC(=O)CCC(=O)O | > 224 | 219 | –
4 | COC(c1ccsc1)C(C#N)(C#N)N=Cc1ccsc1 (centres undefined) | > 200 | 16.2 | –
5 | O=c1ccn2n1CCCCC2 | > 200 | > 200 | –
6 | Cc1ccc(C)c(NC(=O)/C(=N\NC(N)=S)C(C#N)c2ccccc2)c1 (centres undefined) | > 19.5 | > 19.5 | –
7 | CCOP(=O)(OCC)/C(C#N)=C/c1ccccn1 | 148 | > 200 | –
8 | O=C(CCC(=O)Nc1ccc(Cl)c(Cl)c1)Cc1nc2ccccc2o1 | > 182 | > 182 | –
9 | COc1nc2c(c(=O)[nH]1)N=C(c1ccc(Cl)cc1)CC(c1ccccc1)N2 (centres undefined) | > 200 | 55 | –
10 | CC1CN1C(=O)NCCCCCCNC(=O)N1CC1C (centres undefined) | > 200 | 4.79 | –
11 | Cc1ccc2c(c1)C(C1Cc3c(C)cccc3C1=O)OC2=O (centres undefined) | > 200 | > 200 | –
12 | CCCNC(=O)Sc1ccccc1C(=O)NCCC(N)=O | > 2.63 | – | –
13 | ClC(Cl)(Cl)C1CCOC1n1nc2ccccc2n1 (centres undefined) | > 200 | > 200 | –
14 | COc1ccc(OC)c2c1-c1nnnn1CCC2(C)C | 132 | > 200 | –
15 | CCCCOc1cccc(/C=N/N=C(/N)NO)c1 | – | – | inactive
16 | CC(=O)OCCCCCn1cnc(C(N)=O)c1N | > 200 | > 200 | –
17 | CC12CCC(C(=O)O1)C(C)(C)O2 (centres undefined) | > 200 | > 200 | –
18 | COC(=O)C12CN(C)CC(C(=O)OC)(C1=O)C(c1ccccn1)N(C)C2c1ccccn1 (centres undefined) | > 51.3 | 36.3 | –
19 | NC(=O)N(O)c1cccc(Br)c1 | > 200 | 145 | –
20 | Nc1nncc2n[nH]nc12 | > 200 | 174 | –
21 | O=[N+]([O-])c1ccc(-n2nc3ccc4c(no[n+]4[O-])c3n2)cc1 | > 200 | 57.5 | –
22 | CC(=O)[n+]1nc(-c2nc(N)nc(NC3C4CC5CC(C4)CC3C5)n2)oc1-c1ccc(Cl)cc1 (centres undefined) | > 11.2 | > 11.2 | –
23 | CCCCC1(C)C=C/C(=C2/C(=O)O/C(=C\C(=O)O)C2=O)O1 (centres undefined) | > 851 | > 851 | –

Row | Structure (SMILES) | EC50 [µM] | IC50 [µM] | outcome
24 | CC(=O)Nc1ccc(C(C2=C(O)c3ccccc3C(=O)C2=O)C2=C(O)c3ccccc3C(=O)C2=O)cc1 | > 200 | 16.2 | –
25 | CN(C)Nc1cc(=O)[nH]c(=O)[nH]1 | > 200 | > 200 | –
26 | CC1(C)C(=O)C(C)(C)C(=O)C(C)(C)C1=O | – | – | inactive
27 | N#Cc1c(-c2ccc([N+](=O)[O-])cc2)c(C#N)c(=O)n(NS(=O)(=O)c2ccccc2)c1O | > 200 | > 200 | –
28 | O=C(CCCCCCCCC(=O)NCC1(c2ccccc2)CCNCC1)NCC1(c2ccccc2)CCNCC1 | > 100 | > 100 | –
29 | O=C(CCN1CCN(CCC(=O)c2ccccc2)CC1)c1ccccc1 | > 200 | 9.12 | –
30 | COC(=O)N1C2C(C[C@@]1(C)C(=O)OC)c1ccccc1N2S(=O)(=O)c1ccccc1 (some centres undefined) | > 200 | > 200 | –
31 | Cn1c2ccccc2c(=NNc2ccccc2C(=O)O)c2ccccc21 | > 200 | 19.5 | –
32 | O=C1C(=O)c2ccccc2C(O)=C1Sc1ccccc1 | > 200 | 13.5 | –
33 | CCc1nc(N)nc(N)c1-c1ccc(Cl)c(Cl)c1 | > 200 | 1.45 | –
34 | C/C=C/C(CC(O)(C(F)(F)F)C(F)(F)F)=N/NC(N)=S | > 200 | > 200 | –
35 | CCc1c2c([nH]c(=S)c1C#N)CCC2 | 61.7 | > 200 | –
36 | COc1cc(C(=O)Nc2nnc(S(N)(=O)=O)s2)cc(OC)c1OC | > 200 | > 200 | –
37 | COC(=O)[C@]1(C)C(OC)=CC(=O)C2C1[C@H]1CCC[C@@H]21 (some centres undefined) | – | – | inactive
38 | Cc1cc(=O)oc2cc(O/C(=C\c3ccccc3)c3nc4ccccc4c(=O)o3)ccc12 | – | – | inactive
39 | CCSC(=O)C1(C)OC2CCCCC2C1=O (centres undefined) | – | – | inactive
40 | C(=C\c1ccc2ccccc2n1)/c1cccnc1 | > 214 | 12 | –
41 | COc1cc2c(c(O)c1OC)CC1CCC(=O)N1C2c1cccc2ccccc12 (centres undefined) | > 200 | 17.4 | –
42 | O=c1cc(-c2ccccc2)oc2cccc(O)c12 | > 200 | > 200 | –
43 | CCC(=O)NC(NNS(=O)(=O)c1ccc(C)cc1)(C(F)(F)F)C(F)(F)F | > 200 | 35.5 | –
44 | NC(=O)NNC/C(Cl)=C(\Cl)C(=O)O | > 1100 | 191 | –
45 | CC1(C)C2CCC3=C(CCC4(C)C5C[C@](C)(C(=O)O)CC[C@]5(C)CC[C@]34C)[C@@]2(C)CC[C@@H]1O (some centres undefined) | 24 | 81.3 | –
46 | CCCCCCC(O)CCCC(O)C1CCC(C2CCC(C(O)CCCCCCCCCCCCC3=CC(C)OC3=O)O2)O1 (centres undefined) | – | – | inactive

Row | Structure (SMILES) | EC50 [µM] | IC50 [µM] | outcome
47 | CCOC(C)OC1CC(n2cc(C)c(=O)[nH]c2=O)OC1CO (centres undefined) | > 14.8 | 13.2 | –
48 | Nn1c(Cc2ccc(Cl)cc2)n[nH]c1=O | > 200 | > 200 | –
49 | Nc1cnc(Nc2cccc3ccccc23)o1 | > 200 | > 200 | –
50 | COc1cccc2cc(C(=O)Nc3ccccc3)c(=N)oc12 | > 200 | > 200 | –
51 | CC#CC#C/C=C1\C=CC2(OC=CC2OC(C)=O)O1 (centres undefined) | – | – | inactive
52 | CCOC(=O)C(C)(C(=O)OCC)C1(c2ccccc2)OC(=O)c2ccccc21 (centres undefined) | – | – | inactive
53 | N#CC(NNC(=O)Cc1ccccc1)c1ccccc1O (centres undefined) | > 129 | 17 | –
54 | Nc1ccccc1/C(O)=C1/CCOC1=O | > 7.08 | > 7.08 | –
55 | O=C(O)c1cccc2cccc(C(=O)O)c12.[Hg] | – | – | inactive
56 | O=C(/C=C\c1cccc2ccccc12)c1ccc(Br)cc1 | > 3.09 | > 3.09 | –
57 | CCOC(=O)CSc1[nH]c2nc(C)nc(Cl)c2c1C#N | > 200 | > 100 | –
58 | COc1c(Cl)cc(C(=CCN[C@H]2CC[C@@]3(C)[C@@H](CC[C@@H]4[C@@H]3CC[C@]3(C)[C@@H]([C@H](C)CCCC(C)C)CC[C@@H]43)C2)c2cc(Cl)c(OC)c(C(=O)O)c2)cc1C(=O)O | > 50.1 | > 50.1 | –
59 | Cc1cc(O)c(/C=N/c2nc(-c3cccc([N+](=O)[O-])c3)cs2)c(=O)o1 | > 200 | 35.5 | –
60 | CC1CN=C(N(C(=O)Nc2ccc(Cl)c(Cl)c2)c2ccccc2)S1 (centres undefined) | > 200 | > 200 | –
61 | COC(=O)[C@@H]1Cc2c([nH]c3ccccc23)[C@H](c2ccccc2)N1 | – | – | inactive
62 | CN(C)N=Nc1cn[nH]c1C(N)=O | > 138 | 6.76 | –
63 | CCOC(=O)c1sc2c(c1OC(=O)c1cc(OC)c(OC)c(OC)c1)c(=O)n(-c1ccccc1)c(=S)n2-c1ccccc1 | > 200 | 4.47 | –
64 | O=C(O)Cn1c[n+](NC(=O)Cc2ccccc2)cn1 | > 200 | > 200 | –
65 | CC1=CC(=O)/C(=C/N2C(=O)/C(=C\c3cccc(O)c3)SC2=S)C(=O)O1 | > 200 | 55 | –
66 | COC1=CC(=O)NCCN1 | 135 | 479 | –
67 | Cc1cc(O)c2c(c1)C(=O)c1cccc(O)c1C2=O | > 28.2 | > 28.2 | –
68 | OCC1OC2c3ccccc3COC2C1OCc1ccccc1 (centres undefined) | – | – | inactive
